The target in this test is T1, RoxP_1 (8His-TEV-RoxP_1, RoxP_1-tagless) (Cutibacterium acnes, UniProt Q6A6F6).
T1 construct: gene PPA1939; mature secreted protein; E. coli host, PelB signal peptide
In words: native gel shift (Coomassie, TCE tryptophan protection). Type of test: binding. The note with it: HSB pH 7.4; weaker than hemin.

T1 sequence (Q6A6F6 entry or part of it): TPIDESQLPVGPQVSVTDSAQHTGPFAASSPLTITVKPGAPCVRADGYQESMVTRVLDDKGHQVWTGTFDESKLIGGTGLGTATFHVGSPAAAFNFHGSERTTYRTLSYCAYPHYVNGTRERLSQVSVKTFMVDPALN

As for `C=CC1=C(C)c2cc3[nH]c(cc4nc(cc5[nH]c(cc1n2)c(C)c5CCC(=O)O)C(CCC(=O)O)=C4C)c(C)c3C=C` [protoporphyrin IX], the “native gel shift (Coomassie, TCE tryptophan protection)” value was “porphyrins revealed weaker binding to PPIX but no detectable binding to coproporphyrin III”.
